Assay results published in patent US20250059164A1, “IRAK DEGRADERS AND USES THEREOF” (Kymera Therapeutics, Inc., priority 2023, published 2025).

What was measured:
[1] = Rodent pharmacokinetics (rat PK); assay type: in vivo; settings: po, dosed intravenously or orally by gavage, plasma, read-out: F % (bioavailability)
Method in brief: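 F % is reported as a letter code: A for ≥5%, B for ≤5%. It was derived from rat plasma profiles after intravenous or oral gavage dosing, with jugular vein sampling from predose to 24 h (5 min point for IV only).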

[2] = target: T1, IRAK4 (Homo sapiens, UniProt Q9NWZ3); assay: IRAK4 MSD degradation in OCI-LY10; assay type: cell-based; settings: OCI-LY10 cells, 24 hrs, Meso Scale Discovery
T1 construct: endogenous in cells; host or cells: OCI-LY10
T1 sequence (Q9NWZ3 1-460): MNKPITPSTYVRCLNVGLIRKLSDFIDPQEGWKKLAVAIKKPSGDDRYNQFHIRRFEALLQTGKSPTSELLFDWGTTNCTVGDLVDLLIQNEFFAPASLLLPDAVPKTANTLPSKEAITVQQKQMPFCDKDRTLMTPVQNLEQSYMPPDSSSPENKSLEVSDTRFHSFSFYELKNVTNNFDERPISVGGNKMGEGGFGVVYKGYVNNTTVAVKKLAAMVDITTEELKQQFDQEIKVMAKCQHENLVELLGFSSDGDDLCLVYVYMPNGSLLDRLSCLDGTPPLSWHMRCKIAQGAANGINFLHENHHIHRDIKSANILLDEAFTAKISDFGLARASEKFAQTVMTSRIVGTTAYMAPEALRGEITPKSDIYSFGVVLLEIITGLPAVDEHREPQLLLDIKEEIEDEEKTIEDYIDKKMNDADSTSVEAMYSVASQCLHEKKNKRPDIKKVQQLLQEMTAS
Method in brief: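 Remaining IRAK4 protein measured by Meso Scale Discovery electrochemiluminescence sandwich assay on lysates of OCI-LY10 cells. Cells were exposed for 4 to 24 hours (37° C., 5% CO2) to eight 1:3-diluted concentrations starting at 1 to 10 μM. DC50 derived by three-parameter logistic fitting.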

| bioavailability [1] | DC50 [2] | SMILES |
| --- | --- | --- |
| ≤ 5% | > 200 nM | Cn1c(=O)n(C2CCC(=O)NC2=O)c2cccc(CCCOC[C@H]3CC[C@H](n4cc(NC(=O)c5cnn6ccc(N7C[C@H]8C[C@@H]7CO8)nc56)c(C(F)F)n4)CC3)c21 (some centres unmarked) [I-109] |
| ≤ 5% | 10 to 100 nM | COc1cc2nc([C@H]3CC[C@H](CN4CCC5(CN(c6cccc7c6n(C)c(=O)n7C6CCC(=O)NC6=O)C5)C(F)(F)C4)CC3)sc2cc1NC(=O)c1cncc(C#N)c1 (some centres unmarked) [I-110] |
| ≤ 5% | > 200 nM | Cn1c(=O)n(C2CCC(=O)NC2=O)c2cccc(N3CC(COC[C@H]4CC[C@H](n5cc(NC(=O)c6cnn7ccc(N8C[C@H]9C[C@@H]8CO9)nc67)c(C(F)F)n5)CC4)C3)c21 (some centres unmarked) [I-111] |
| ≥ 5% | < 10 nM | Cn1c(=O)n(C2CCC(=O)NC2=O)c2ccc(F)c(N3CC(N4CCN([C@H]5CC[C@H](n6cc(NC(=O)c7cnn8ccc(N9C[C@H]%10C[C@@H]9CO%10)nc78)c(C(F)F)n6)CC5)CC4)C3)c21 (some centres unmarked) [I-117] |
| ≤ 5% | < 10 nM | COc1cc2nn([C@H]3CC[C@H](CN4CCC5(CCN(c6cccc7c6n(C)c(=O)n7C6CCC(=O)NC6=O)CC5)C(F)(F)C4)CC3)cc2cc1NC(=O)c1cncc(F)c1 (some centres unmarked) [I-127] |
| ≤ 5% | 10 to 100 nM | COc1cc2nn([C@H]3CC[C@H](CN4CCC5(CN(c6ccc(C7CCC(=O)NC7=O)c(Cl)c6)C5)C(F)(F)C4)CC3)cc2cc1NC(=O)c1cncc(C#N)c1 (some centres unmarked) [I-128] |
| ≤ 5% | < 10 nM | Cn1c(=O)n(C2CCC(=O)NC2=O)c2cccc([C@@H]3CCN(C[C@H]4CC[C@H](n5cc6cc(NC(=O)c7cncc(C#N)c7)ccc6n5)CC4)C[C@H]3F)c21 (some centres unmarked) [I-129] |
| ≤ 5% | < 10 nM | COc1cc2nn([C@H]3CC[C@H](CN4CCC5(CCN(c6cccc7c(C8CCC(=O)NC8=O)nn(C)c67)CC5)C(F)(F)C4)CC3)cc2cc1NC(=O)c1cncc(C#N)c1 (some centres unmarked) [I-132] |
| ≤ 5% | < 10 nM | COc1cc2nn([C@H]3CC[C@H](CN4CC[C@@H](c5c(Cl)ccc6c5n(C)c(=O)n6C5CCC(=O)NC5=O)[C@H](F)C4)CC3)cc2cc1NC(=O)c1cncc(C#N)c1 (some centres unmarked) [I-133] |
| ≥ 5% | > 200 nM | Cn1c(=O)n(C2CCC(=O)NC2=O)c2cccc([C@@H]3CCN(C[C@H]4CC[C@H](n5cc6cc(NC(=O)c7cc(C(F)(F)F)ccn7)ccc6n5)CC4)C[C@H]3F)c21 (some centres unmarked) [I-134] |
| ≥ 5% | < 10 nM | Cn1c(=O)n(C2CCC(=O)NC2=O)c2cccc(N3CC[C@H](NC[C@H]4CC[C@H](n5cc(NC(=O)c6cnn7ccc(N8C[C@H]9C[C@@H]8CO9)nc67)c(C(F)F)n5)CC4)[C@@H](F)C3)c21 (some centres unmarked) [I-135] |
| ≥ 5% | < 10 nM | CN(C[C@H]1CC[C@H](c2nc3cc(C(C)(C)O)c(NC(=O)c4cccc(C(F)(F)F)n4)cc3o2)CC1)[C@@H]1CCN(c2cccc3c2n(C)c(=O)n3C2CCC(=O)NC2=O)C[C@H]1F (some centres unmarked) [I-137] |
| ≤ 5% | 10 to 100 nM | Cn1c(=O)n(C2CCC(=O)NC2=O)c2cccc(N3CCC4(CCN(C[C@H]5CC[C@H](n6cc7cc(NC(=O)c8cccc(C(F)(F)F)c8)ncc7n6)CC5)CC4(F)F)CC3)c21 (some centres unmarked) [I-141] |
| ≥ 5% | < 10 nM | COc1cc2nn([C@H]3CC[C@H](CN4CC[C@@H](c5cccc6c5n(C)c(=O)n6C5CCC(=O)NC5=O)[C@H](F)C4)CC3)cc2cc1C(=O)Nc1cccc(C(F)(F)F)c1 (some centres unmarked) [I-142] |
| ≤ 5% | < 10 nM | Cc1nc(C(=O)Nc2ccc3nn([C@H]4CC[C@H](CN5CC[C@@H](c6cccc7c6n(C)c(=O)n7C6CCC(=O)NC6=O)[C@H](F)C5)CC4)cc3c2)co1 (some centres unmarked) [I-148] |
| ≤ 5% | < 10 nM | Cn1c(=O)n(C2CCC(=O)NC2=O)c2cccc([C@@H]3CCN(C[C@H]4CC[C@H](n5cc6cc(NC(=O)c7csc(C(F)(F)F)n7)ccc6n5)CC4)C[C@H]3F)c21 (some centres unmarked) [I-149] |
| ≤ 5% | < 10 nM | Cn1c(=O)n(C2CCC(=O)NC2=O)c2cccc([C@@H]3CCN(C[C@H]4CC[C@H](n5cc6cc(NC(=O)c7nc(C(F)(F)F)cs7)ccc6n5)CC4)C[C@H]3F)c21 (some centres unmarked) [I-154] |
| ≤ 5% | > 200 nM | Cn1cc(Cl)c(C(=O)Nc2ccc3nn([C@H]4CC[C@H](CN5CC[C@@H](c6cccc7c6n(C)c(=O)n7C6CCC(=O)NC6=O)[C@H](F)C5)CC4)cc3c2)n1 (some centres unmarked) [I-155] |
| ≤ 5% | < 10 nM | Cn1c(=O)n(C2CCC(=O)NC2=O)c2cccc([C@@H]3CCN(C[C@H]4CC[C@H](n5cc6cc(NC(=O)c7cncc(C(F)(F)F)n7)ncc6n5)CC4)C[C@H]3F)c21 (some centres unmarked) [I-156] |

| bioavailability [1] | DC50 [2] | SMILES |
| --- | --- | --- |
| ≥ 5% | < 10 nM | Cn1c(=O)n(C2CCC(=O)NC2=O)c2cccc([C@@H]3CCN(C[C@H]4CC[C@H](c5nc6cc(C(C)(C)O)c(NC(=O)c7cncc(C(F)(F)F)c7)cc6s5)CC4)C[C@H]3F)c21 (some centres unmarked) [I-163] |
| ≥ 5% | < 10 nM | Cn1c(=O)n(C2CCC(=O)NC2=O)c2cccc([C@@H]3CCN(C[C@H]4CC[C@H](c5nc6cc(C(C)(C)O)c(NC(=O)c7cccc(C(F)(F)F)n7)cc6o5)CC4)C[C@H]3F)c21 (some centres unmarked) [I-167] |
| ≤ 5% | < 10 nM | Cn1c(=O)n(C2CCC(=O)NC2=O)c2cccc([C@@H]3CCN(C[C@H]4CC[C@H](c5nc6cc(C(C)(C)O)c(NC(=O)c7cccc(C(F)(F)F)c7)cc6s5)CC4)C[C@H]3F)c21 (some centres unmarked) [I-169] |
| ≥ 5% | < 10 nM | Cn1c(=O)n(C2CCC(=O)NC2=O)c2cccc([C@@H]3CCN(C[C@H]4CC[C@H](c5nc6cc(C(C)(C)O)c(NC(=O)c7ccnc(C(F)(F)F)n7)cc6s5)CC4)C[C@H]3F)c21 (some centres unmarked) [I-170] |
| ≤ 5% | < 10 nM | Cn1c(=O)n(C2CCC(=O)NC2=O)c2cccc([C@@H]3CCN(C[C@H]4CC[C@H](n5cc6cc(NC(=O)c7cncc(C(F)(F)F)n7)c(C(C)(C)O)cc6n5)CC4)C[C@H]3F)c21 (some centres unmarked) [I-171] |
| ≤ 5% | < 10 nM | Cn1c(=O)n(C2CCC(=O)NC2=O)c2cccc([C@@H]3CCN(C[C@H]4CC[C@H](n5cc6cc(NC(=O)c7cncc(C(F)(F)F)n7)c(C#N)cc6n5)CC4)C[C@H]3F)c21 (some centres unmarked) [I-172] |
| ≤ 5% | < 10 nM | Cn1c(=O)n(C2CCC(=O)NC2=O)c2cccc([C@@H]3CCN(C[C@H]4CC[C@H](c5nc6cc(C(C)(C)O)c(NC(=O)c7cncc(C(F)(F)F)n7)cc6s5)CC4)C[C@H]3F)c21 (some centres unmarked) [I-173] |
| ≤ 5% | > 200 nM | Cn1c(=O)n(C2CCC(=O)NC2=O)c2cccc([C@@H]3CCN(C[C@H]4CC[C@H](n5cc6cc(NC(=O)c7cc(C(F)(F)F)cnn7)ccc6n5)CC4)C[C@H]3F)c21 (some centres unmarked) [I-175] |
| ≤ 5% | < 10 nM | Cn1c(=O)n(C2CCC(=O)NC2=O)c2cccc(C#CCN3CCN(C[C@H]4CC[C@H](n5cc(NC(=O)c6cnn7ccc(N8C[C@H]9C[C@@H]8CO9)nc67)c(C(F)F)n5)CC4)C(=O)C3)c21 (some centres unmarked) [I-185] |
| ≤ 5% | < 10 nM | Cn1c(=O)n(C2CCC(=O)NC2=O)c2cccc(C#CCN3CCN(C[C@H]4CC[C@H](n5cc(NC(=O)c6cnn7ccc(N8C[C@H]9C[C@@H]8CO9)nc67)c(C(F)F)n5)CC4)CC3=O)c21 (some centres unmarked) [I-186] |
| ≤ 5% | < 10 nM | Cn1c(=O)n(C2CCC(=O)NC2=O)c2cccc([C@@H]3CCN(C[C@H]4CC[C@H](n5cc6cc(NC(=O)c7cncc(C#N)c7)c(C(C)(C)O)cc6n5)CC4)C[C@H]3F)c21 (some centres unmarked) [I-188] |
| ≤ 5% | < 10 nM | COc1cc2nn([C@H]3CC[C@H](CN4CC[C@@H](c5cccc6c5n(C)c(=O)n6C5CCC(=O)NC5=O)[C@H](F)C4)CC3)cc2cc1NC(=O)c1cncc(C(F)(F)F)n1 (some centres unmarked) [I-189] |
| ≤ 5% | > 200 nM | Cn1c(=O)n(C2CCC(=O)NC2=O)c2cccc([C@@H]3CCN(C[C@H]4CC[C@H](n5cc6cc(NC(=O)c7ccnc(C(F)(F)F)n7)ccc6n5)CC4)C[C@H]3F)c21 (some centres unmarked) [I-190] |
| ≤ 5% | 10 to 100 nM | Cn1c(=O)n(C2CCC(=O)NC2=O)c2cccc(N3CCC(F)(CN4CCC(c5nc6cc(C(C)(C)O)c(NC(=O)c7cccc(C(F)(F)F)n7)cc6s5)CC4)CC3)c21 (centres unmarked) [I-191] |
| ≤ 5% | < 10 nM | Cn1c(=O)n(C2CCC(=O)NC2=O)c2cccc([C@@H]3CCN(C[C@H]4CC[C@H](c5cn6cc(NC(=O)c7cncc(C(F)(F)F)n7)ccc6n5)CC4)C[C@H]3F)c21 (some centres unmarked) [I-193] |
| ≥ 5% | < 10 nM | Cn1c(=O)n(C2CCC(=O)NC2=O)c2cccc([C@@H]3CCN(C[C@H]4CC[C@H](c5cc6cc(NC(=O)c7cncc(C(F)(F)F)n7)ccn6n5)CC4)C[C@H]3F)c21 (some centres unmarked) [I-194] |
| ≤ 5% | > 200 nM | Cn1c(=O)n(C2CCC(=O)NC2=O)c2cccc([C@@H]3CCN(C[C@H]4CC[C@H](n5cc6cc(NC(=O)c7nccc(C(F)(F)F)n7)ccc6n5)CC4)C[C@H]3F)c21 (some centres unmarked) [I-195] |
| ≤ 5% | > 200 nM | Cn1c(=O)n(C2CCC(=O)NC2=O)c2cccc([C@@H]3CCN(C[C@H]4CC[C@H](n5cc6cc(NC(=O)c7cc(C(F)(F)F)ncn7)ccc6n5)CC4)C[C@H]3F)c21 (some centres unmarked) [I-196] |
